Source: patent US20260226068A1, “IMIDAZOTRIAZINE IL-17A MODULATORS AND USES THEREOF” (DICE ALPHA, INC., priority 2023, published 2026)

Columns and labels:
IL-17A/A = target: T1, IL-17A/A (Homo sapiens, UniProt Q16552); test: IL-17A/A HEK-Blue cell assay (SEAP reporter); type: cell-based; settings: HEK-Blue IL-17A reporter cells, IL17A/A 5 ng/mL, 20 hours, SEAP read at A630; read-out: HEK-Blue IL17AA (IC50 for IL-17A/A inhibition)
T1 construct: purchased Genscript Z03228
T1 sequence (Q16552 24-155): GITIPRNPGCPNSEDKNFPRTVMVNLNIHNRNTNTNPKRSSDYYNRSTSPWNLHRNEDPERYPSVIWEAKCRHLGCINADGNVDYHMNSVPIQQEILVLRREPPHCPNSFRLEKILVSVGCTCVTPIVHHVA

IL-17A/F = target: T2, IL-17A/F (Homo sapiens, UniProt Q16552+Q96PD4); test: IL-17A/F HEK-Blue cell assay (SEAP reporter); type: cell-based; settings: HEK-Blue IL-17A reporter cells, IL17A/F 5 ng/mL, 20 hours, SEAP read at A630; read-out: HEK-Blue IL17AF (IC50 for IL-17A/F inhibition)
T2 construct: purchased R&D Systems
T2 sequence (Q16552 24-155): T1 sequence (Q16552 24-155)
T2 sequence (Q96PD4 31-163): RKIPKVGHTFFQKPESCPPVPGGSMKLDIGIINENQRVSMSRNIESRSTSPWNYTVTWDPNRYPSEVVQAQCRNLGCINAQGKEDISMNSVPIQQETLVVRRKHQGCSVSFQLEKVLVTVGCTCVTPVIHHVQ

IC50 (IL-17A/A) [nM] | IC50 (IL-17A/F) [nM] | SMILES
< 100 | 100 to 1000 | CCn1nccc1C(=O)N[C@H](c1cn2nc(C[C@H]3C[C@@H](C(F)(F)F)CNC3=O)c(N3CCN(C)C4(CC4)C3)nc2n1)C1CCC(F)(F)CC1 [Compound 357, N—((S)-(4,4-difluorocyclohexyl)(3-(4-methyl-4,7-diazaspiro[2.5]octan-7-yl)-2-(((3R,5R)-2-oxo-5-(trifluoromethyl)piperidin-3-yl)methyl)imidazo[1,2-b][1,2,4]triazin-6-yl)methyl)-1-ethyl-1H-pyrazole-5-carboxamide]
< 100 | 100 to 1000 | CCn1nccc1C(=O)N[C@H](c1cn2nc(C[C@H]3C[C@@H](C(F)(F)F)CNC3=O)c(C3CCn4nccc4C3)nc2n1)C1CCC(F)(F)CC1 (stereo partly drawn) [Compound 358, N-((1S)-(4,4-difluorocyclohexyl)(2-(((3R,5R)-2-oxo-5-(trifluoromethyl)piperidin-3-yl)methyl)-3-(4,5,6,7-tetrahydropyrazolo[1,5-a]pyridin-5-yl)imidazo[1,2-b][1,2,4]triazin-6-yl)methyl)-1-ethyl-1H-pyrazole-5-carboxamide]
< 100 | 100 to 1000 | CCn1nccc1C(=O)N[C@H](c1cn2nc(C[C@H]3C[C@@H](C(F)(F)F)CNC3=O)c(CCN3CCOCC3)nc2n1)C1CCC(F)(F)CC1 [Compound 359]
100 to 1000 | 100 to 1000 | CCn1nccc1C(=O)N[C@H](c1cn2nc(C[C@H]3C[C@@H](C(F)(F)F)CNC3=O)c(N3CC4CC(C3)N4C)nc2n1)C1CCC(F)(F)CC1 [Compound 360, N-((1S)-(4,4-difluorocyclohexyl)(3-(6-methyl-3,6-diazabicyclo[3.1.1]heptan-3-yl)-2-(((3R,5R)-2-oxo-5-(trifluoromethyl)piperidin-3-yl)methyl)imidazo[1,2-b][1,2,4]triazin-6-yl)methyl)-1-ethyl-1H-pyrazole-5-carboxamide]
< 100 | 100 to 1000 | CCn1nccc1C(=O)N[C@H](c1cn2nc(C[C@H]3C[C@@H](C(F)(F)F)CNC3=O)c(N3CC4CCC(C3)N4C)nc2n1)C1CCC(F)(F)CC1 [Compound 361, N-((1S)-(4,4-difluorocyclohexyl)(3-(8-methyl-3,8-diazabicyclo[3.2.1]octan-3-yl)-2-(((3R,5R)-2-oxo-5-(trifluoromethyl)piperidin-3-yl)methyl)imidazo[1,2-b][1,2,4]triazin-6-yl)methyl)-1-ethyl-1H-pyrazole-5-carboxamide]
100 to 1000 | > 1000 | CN(C)CCn1nccc1C(=O)N[C@H](c1cn2nc(C[C@H]3C[C@@H](C(F)(F)F)CNC3=O)c(C3CCOCC3)nc2n1)C1CCC(F)(F)CC1 [Compound 362, N—((S)-(4,4-difluorocyclohexyl)(2-(((3R,5R)-2-oxo-5-(trifluoromethyl)piperidin-3-yl)methyl)-3-(tetrahydro-2H-pyran-4-yl)imidazo[1,2-b][1,2,4]triazin-6-yl)methyl)-1-(2-(dimethylamino)ethyl)-1H-pyrazole-5-carboxamide]
< 100 | > 1000 | CCn1ncnc1C(=O)N[C@H](c1cn2nc(C[C@H]3C[C@@H](C(F)(F)F)CNC3=O)c(C3CCOCC3)nc2n1)C1CCC(F)(F)CC1 [Compound 363, N—((S)-(4,4-difluorocyclohexyl)(2-(((3R,5R)-2-oxo-5-(trifluoromethyl)piperidin-3-yl)methyl)-3-(tetrahydro-2H-pyran-4-yl)imidazo[1,2-b][1,2,4]triazin-6-yl)methyl)-1-ethyl-1H-1,2,4-triazole-5-carboxamide]
< 100 | > 1000 | CCn1nncc1C(=O)N[C@H](c1cn2nc(C[C@H]3C[C@@H](C(F)(F)F)CNC3=O)c(C3CCOCC3)nc2n1)C1CCC(F)(F)CC1 [Compound 364, N—((S)-(4,4-difluorocyclohexyl)(2-(((3R,5R)-2-oxo-5-(trifluoromethyl)piperidin-3-yl)methyl)-3-(tetrahydro-2H-pyran-4-yl)imidazo[1,2-b][1,2,4]triazin-6-yl)methyl)-1-ethyl-1H-1,2,3-triazole-5-carboxamide]
< 100 | 100 to 1000 | CCn1nccc1C(=O)N[C@H](c1cn2nc(C[C@H]3C[C@@H](C(F)(F)F)CNC3=O)c(N3CCOC(C)(C)C3)nc2n1)C1CCC(F)(F)CC1 [Compound 365, N—((S)-(4,4-difluorocyclohexyl)(3-(2,2-dimethylmorpholino)-2-(((3R,5R)-2-oxo-5-(trifluoromethyl)piperidin-3-yl)methyl)imidazo[1,2-b][1,2,4]triazin-6-yl)methyl)-1-ethyl-1H-pyrazole-5-carboxamide]
< 100 | < 100 | CCn1nccc1C(=O)N[C@H](c1cn2nc(C[C@H]3C[C@@H](C(F)(F)F)CNC3=O)c(N3CCN4CCOC[C@@H]4C3)nc2n1)C1CCC(F)(F)CC1 [Compound 366, N—((S)-(4,4-difluorocyclohexyl)(3-((S)-hexahydropyrazino[2,1-c][1,4]oxazin-8(1H)-yl)-2-(((3R,5R)-2-oxo-5-(trifluoromethyl)piperidin-3-yl)methyl)imidazo[1,2-b][1,2,4]triazin-6-yl)methyl)-1-ethyl-1H-pyrazole-5-carboxamide]
< 100 | < 100 | CCn1nccc1C(=O)N[C@H](c1cn2nc(C[C@H]3C[C@@H](C(F)(F)F)CNC3=O)c(N3CCN4CCCC[C@@H]4C3)nc2n1)C1CCC(F)(F)CC1 [Compound 367, N—((S)-(4,4-difluorocyclohexyl)(3-((R)-octahydro-2H-pyrido[1,2-a]pyrazin-2-yl)-2-(((3R,5R)-2-oxo-5-(trifluoromethyl)piperidin-3-yl)methyl)imidazo[1,2-b][1,2,4]triazin-6-yl)methyl)-1-ethyl-1H-pyrazole-5-carboxamide]
< 100 | 100 to 1000 | CCn1nccc1C(=O)N[C@H](c1cn2nc(C[C@H]3C[C@@H](C(F)(F)F)CNC3=O)c(N3CCN4CCC[C@@H]4C3)nc2n1)C1CCC(F)(F)CC1 [Compound 368, N—((S)-(4,4-difluorocyclohexyl)(3-((R)-hexahydropyrrolo[1,2-a]pyrazin-2(1H)-yl)-2-(((3R,5R)-2-oxo-5-(trifluoromethyl)piperidin-3-yl)methyl)imidazo[1,2-b][1,2,4]triazin-6-yl)methyl)-1-ethyl-1H-pyrazole-5-carboxamide]
100 to 1000 | > 1000 | CCn1nccc1C(=O)N[C@H](c1cn2nc(C[C@H]3C[C@@H](C(F)(F)F)CNC3=O)c(C3CCCCN3CCOC)nc2n1)C1CCC(F)(F)CC1 (stereo partly drawn) [Compound 369, N-((1S)-(4,4-difluorocyclohexyl)(3-(1-(2-methoxyethyl)piperidin-2-yl)-2-(((3R,5R)-2-oxo-5-(trifluoromethyl)piperidin-3-yl)methyl)imidazo[1,2-b][1,2,4]triazin-6-yl)methyl)-1-ethyl-1H-pyrazole-5-carboxamide]
100 to 1000 | > 1000 | CCn1nccc1C(=O)N[C@H](c1cn2nc(C[C@H]3C[C@@H](C(F)(F)F)CNC3=O)c(C3CCN(CCOC)C3)nc2n1)C1CCC(F)(F)CC1 (stereo partly drawn) [Compound 370, N-((1S)-(4,4-difluorocyclohexyl)(3-(1-(2-methoxyethyl)pyrrolidin-3-yl)-2-(((3R,5R)-2-oxo-5-(trifluoromethyl)piperidin-3-yl)methyl)imidazo[1,2-b][1,2,4]triazin-6-yl)methyl)-1-ethyl-1H-pyrazole-5-carboxamide]
< 100 | 100 to 1000 | CCn1nccc1C(=O)N[C@H](c1cn2nc(C[C@H]3C[C@@H](C(F)(F)F)CNC3=O)c(CN3CCC(F)CC3)nc2n1)C1CCC(F)(F)CC1 [Compound 371, N—((S)-(4,4-difluorocyclohexyl)(3-((4-fluoropiperidin-1-yl)methyl)-2-(((3R,5R)-2-oxo-5-(trifluoromethyl)piperidin-3-yl)methyl)imidazo[1,2-b][1,2,4]triazin-6-yl)methyl)-1-ethyl-1H-pyrazole-5-carboxamide]
< 100 | 100 to 1000 | O=C(N[C@H](c1cn2nc(C[C@H]3C[C@@H](C(F)(F)F)CNC3=O)c(C3CCOCC3)nc2n1)C1CCC(F)(F)CC1)c1nonc1OCC(F)(F)F [Compound 372, N—((S)-(4,4-difluorocyclohexyl)(2-(((3R,5R)-2-oxo-5-(trifluoromethyl)piperidin-3-yl)methyl)-3-(tetrahydro-2H-pyran-4-yl)imidazo[1,2-b][1,2,4]triazin-6-yl)methyl)-4-(2,2,2-trifluoroethoxy)-1,2,5-oxadiazole-3-carboxamide]
< 100 | 100 to 1000 | O=C(N[C@H](c1cn2nc(C[C@H]3C[C@@H](C(F)(F)F)CNC3=O)c(C3CCOCC3)nc2n1)C1CCC(F)(F)CC1)c1nonc1CN1CC(F)C1 [Compound 373, N—((S)-(4,4-difluorocyclohexyl)(2-(((3R,5R)-2-oxo-5-(trifluoromethyl)piperidin-3-yl)methyl)-3-(tetrahydro-2H-pyran-4-yl)imidazo[1,2-b][1,2,4]triazin-6-yl)methyl)-4-((3-fluoroazetidin-1-yl)methyl)-1,2,5-oxadiazole-3-carboxamide]
< 100 | 100 to 1000 | CCn1nccc1C(=O)N[C@H](c1cn2nc(C[C@H]3C[C@@H](C(F)(F)F)CNC3=O)c(CN3CCOCC3)nc2n1)[C@H]1CC[C@H](C)CC1 [Compound 374, 1-ethyl-N—((S)-((1r,4S)-4-methylcyclohexyl)(3-(morpholinomethyl)-2-(((3R,5R)-2-oxo-5-(trifluoromethyl)piperidin-3-yl)methyl)imidazo[1,2-b][1,2,4]triazin-6-yl)methyl)-1H-pyrazole-5-carboxamide]
